Laboratory results: PMC9149975, “The diaryl-imidazopyridazine anti-plasmodial compound, MMV652103, exhibits anti-breast cancer activity” (EXCLI Journal, 2022)
Like-named read-outs stand apart in the source and are kept apart here.

Legend:
PIK3C2G = target: T1, PIK3C2G (Homo sapiens, UniProt O75747); experiment: ADP-Glo lipid kinase assay, PIK3C2G; type: biochemical
T1 construct: purchased Carna Biosciences Inc; Invitrogen Corporation
Description: A non-radiometric kinase assay (ADP-Glo™ Assay, Promega, Madison, Wi, USA) was used for measuring the kinase activity of the 2 lipid kinases, phosphatidylinositol 4-kinase beta (encoded by the PI4KB gene) and phosphatidylinositol-4-Phosphate 3-Kinase Catalytic Subunit Type 2 Gamma (encoded by the PIK3C2G gene). All kinase assays were performed in 96-well half-area microtiter plates from Greiner Bio-One (Frickenhausen, Germany) in 25 µl reaction volumes. […] In addition, the assay for PI4KB contained 3 mM MnCl2 and the assay for PIK3C2G contained 3 mM MgCl2. Kinases from external vendors (Carna Biosciences Inc.; Invitrogen Corporation; Millipore Corporation) were expressed, purified and quality-controlled by virtue of the vendors readings. The reaction cocktails were incubated at 30 °C for 60 min. The reaction was stopped with 25 µl ADP-Glo reagent per well. Plates were incubated for 40 min at RT, followed by the addition of 50 µl kinase detection reagent per well and incubation for 60 min at RT. Signal was determined with a microplate luminescence reader (Victor, Perkin Elmer). […]
For each kinase, the median value of the counts per second (cps) of three wells with complete reaction cocktails, but without kinase, was defined as "low control" (n=3). […] The residual activity (in %) for each well of each row of a particular plate was calculated by using the following formula: […]

PIK3CB/ PIK3R1 = target: T2, PIK3CB/ PIK3R1 (Homo sapiens, UniProt P42338); experiment: ADP-Glo lipid kinase assay, PIK3CB/PIK3R1; type: biochemical; conditions: 10 µM compound
T2 construct: purchased Carna Biosciences Inc; Invitrogen Corporation

[1] = Solubility in DMSO at 10 mM; type: physicochemical; conditions: final concentration 10 mM
MCF7 cells = experiment: GSH-Glo Glutathione assay; type: cell-based, human; conditions: MCF7, 24 h; MMV652103 ½ IC50 and IC50, doxorubicin IC50 (9.84 nM)
Description: The increase in ROS levels results in a decrease in the levels of antioxidants. To confirm the presence of intracellular ROS, the levels of the antioxidant, glutathione (GSH), was measured using the GSH-Glo™ Glutathione assay kit (V6911, Promega, Wisconsin, USA), according to the manufacturer's instructions. Briefly, cells (2500-4500 cells per well) were seeded in opaque 96 well plates. Cells were treated for 24 h with either vehicle or MMV652103. Thereafter, the cell culture medium was removed and 100 μl of 1X GSH-Glo™ Reagent (prepared using Luciferin-NT substrate and Glutathione S-Transferase each diluted 1:100 in GSH-Glo™ Reaction Buffer) was added to each well. The plate was then mixed briefly on a shaker and incubated for 10 min at RT. Thereafter, 100 μl reconstituted Luciferin Detection Reagent was added to each well. The plate was then incubated for 15 min RT in order to stabilize the luminescence signal. The plate was read using the GloMax® Explorer Multimode plate reader (Promega, Wisconsin, USA).

[2] = test system: MCF7 (breast cancer cell line); experiment: MTT cytotoxicity assay, MCF7; type: cell-based, human; conditions: for IC50: Homo sapiens
Excerpt: Human estrogen-receptor positive (ER+) breast adenocarcinoma cell lines, MCF7 and T47D, were maintained in Roswell Park Memorial Institute-1640 medium (Sigma Aldrich, Missouri, USA) and the human epidermal growth factor receptor 2 positive (HER2+) BT474, and triple negative (TNBC) MDA-MB-231 and MDA-MB-468 cells were maintained in Dulbecco's Modified Eagle's Medium (DMEM) (Sigma Aldrich, Missouri, USA). FG0 human skin fibroblasts (provided by Associate Professor Denver Hendricks, University of Cape Town) were maintained in DMEM while the normal breast epithelial cell line MCF12A was maintained in DMEM:nutrient mixture F-12 (DMEM/F12; 1:1; Sigma Aldrich, Missouri, USA), supplemented with 20 ng/ml epidermal growth factor, 100 ng/ml cholera toxin, 500 ng/ml hydrocortisone and 10 µg/ml insulin. All media were supplemented with 10 % fetal bovine serum, 100 U/ml penicillin and 100 µg/ml streptomycin. Cells were maintained at 37 °C in a 5 % CO2 and 95 % air-humidified incubator. Media was replaced every 2-3 days and cells were routinely tested for mycoplasma infection.
(§1) Cells (3.5×10^3-6×10^3 / well) were seeded in 96-well plates and treated at a 60-70 % confluence with a range of concentrations (0-10 μM) of test compounds or vehicle for 48 h. Cell viability was measured using the 3-(4,5-dimethylthiazol-2-yl)-2,5-diphenyl-trazolium bromide (MTT) assay (11465007001; Sigma Aldrich) according to the manufacturer's instructions. Mean cell viability was calculated as a percentage of the mean vehicle control. A minimum of three independent experiments in quadruplicate were performed from which the IC50 was determined from sigmoidal plots using GraphPad Prism version 6.0 (GraphPad Software, California, USA). The selectivity index (SI) was determined by dividing the IC50 of a non-malignant cell line by the IC50 of a cancer cell line.
Briefly, the cells were treated with a range of concentrations (2 - 20 µM) of each compound or vehicle (DMSO) for 48 h and MTT assays were performed. […] Based on the promising IC50 and SI values obtained for MMV652103, it was chosen for further studies.

[3] = test system: MDA-MB-231 (TNBC) breast cancer cells; experiment: MTT cytotoxicity assay, MDA-MB-231; type: cell-based; conditions: Homo sapiens
Description: (§2) Human estrogen-receptor positive (ER+) breast adenocarcinoma cell lines, MCF7 and T47D, were maintained in Roswell Park Memorial Institute-1640 medium (Sigma Aldrich, Missouri, USA) and the human epidermal growth factor receptor 2 positive (HER2+) BT474, and triple negative (TNBC) MDA-MB-231 and MDA-MB-468 cells were maintained in Dulbecco's Modified Eagle's Medium (DMEM) (Sigma Aldrich, Missouri, USA). […]
as §1

[4] = test system: BT474 (HER2+) breast cancer cells; experiment: MTT cytotoxicity assay, BT474; type: cell-based; conditions: Homo sapiens, BT-474
Description: as §2, §1

PIK3C2B = target: T3, PIK3C2B (Homo sapiens, UniProt O00750); experiment: ADP-Glo lipid kinase assay, PIK3C2B; type: biochemical; conditions: 10 µM compound
T3 construct: purchased Carna Biosciences Inc; Invitrogen Corporation

PIK3CA/ PIK3R1 = target: T4, PIK3CA/ PIK3R1 (Homo sapiens, UniProt P42336); experiment: ADP-Glo lipid kinase assay, PIK3CA/PIK3R1; type: biochemical; conditions: 10 µM compound
T4 construct: purchased Carna Biosciences Inc; Invitrogen Corporation

PIK3CD/ PIK3R1 = target: T5, PIK3CD/ PIK3R1 (Homo sapiens, UniProt O00329); experiment: ADP-Glo lipid kinase assay, PIK3CD/PIK3R1; type: biochemical; conditions: 10 µM compound
T5 construct: purchased Carna Biosciences Inc; Invitrogen Corporation
T5 sequence (O00329 whole entry): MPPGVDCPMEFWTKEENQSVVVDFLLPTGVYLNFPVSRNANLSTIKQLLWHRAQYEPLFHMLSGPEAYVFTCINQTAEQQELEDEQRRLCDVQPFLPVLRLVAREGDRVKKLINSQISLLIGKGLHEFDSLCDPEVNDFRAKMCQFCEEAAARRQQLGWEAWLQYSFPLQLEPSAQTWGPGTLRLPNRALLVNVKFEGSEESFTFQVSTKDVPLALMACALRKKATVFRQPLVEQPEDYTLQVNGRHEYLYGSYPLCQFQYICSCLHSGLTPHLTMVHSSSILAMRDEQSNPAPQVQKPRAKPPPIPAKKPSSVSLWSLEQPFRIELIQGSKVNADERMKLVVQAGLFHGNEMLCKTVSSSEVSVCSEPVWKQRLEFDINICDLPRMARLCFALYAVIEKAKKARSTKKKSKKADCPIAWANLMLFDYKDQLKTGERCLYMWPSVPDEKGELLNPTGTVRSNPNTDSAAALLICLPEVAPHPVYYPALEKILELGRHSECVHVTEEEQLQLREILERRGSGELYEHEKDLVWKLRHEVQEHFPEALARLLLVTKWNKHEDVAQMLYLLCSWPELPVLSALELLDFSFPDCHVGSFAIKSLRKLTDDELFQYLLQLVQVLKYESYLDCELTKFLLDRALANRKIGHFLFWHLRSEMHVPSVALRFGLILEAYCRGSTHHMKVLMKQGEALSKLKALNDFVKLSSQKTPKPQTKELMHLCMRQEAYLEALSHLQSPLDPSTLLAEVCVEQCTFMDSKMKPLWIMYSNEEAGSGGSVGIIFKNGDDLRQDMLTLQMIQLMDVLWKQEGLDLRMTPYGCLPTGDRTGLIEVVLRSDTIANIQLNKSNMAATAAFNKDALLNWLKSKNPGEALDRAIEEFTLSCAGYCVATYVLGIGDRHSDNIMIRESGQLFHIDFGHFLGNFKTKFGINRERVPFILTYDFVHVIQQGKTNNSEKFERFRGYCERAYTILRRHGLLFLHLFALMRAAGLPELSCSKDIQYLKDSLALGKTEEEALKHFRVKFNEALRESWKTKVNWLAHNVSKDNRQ
T5 sequence (P27986 whole entry partner): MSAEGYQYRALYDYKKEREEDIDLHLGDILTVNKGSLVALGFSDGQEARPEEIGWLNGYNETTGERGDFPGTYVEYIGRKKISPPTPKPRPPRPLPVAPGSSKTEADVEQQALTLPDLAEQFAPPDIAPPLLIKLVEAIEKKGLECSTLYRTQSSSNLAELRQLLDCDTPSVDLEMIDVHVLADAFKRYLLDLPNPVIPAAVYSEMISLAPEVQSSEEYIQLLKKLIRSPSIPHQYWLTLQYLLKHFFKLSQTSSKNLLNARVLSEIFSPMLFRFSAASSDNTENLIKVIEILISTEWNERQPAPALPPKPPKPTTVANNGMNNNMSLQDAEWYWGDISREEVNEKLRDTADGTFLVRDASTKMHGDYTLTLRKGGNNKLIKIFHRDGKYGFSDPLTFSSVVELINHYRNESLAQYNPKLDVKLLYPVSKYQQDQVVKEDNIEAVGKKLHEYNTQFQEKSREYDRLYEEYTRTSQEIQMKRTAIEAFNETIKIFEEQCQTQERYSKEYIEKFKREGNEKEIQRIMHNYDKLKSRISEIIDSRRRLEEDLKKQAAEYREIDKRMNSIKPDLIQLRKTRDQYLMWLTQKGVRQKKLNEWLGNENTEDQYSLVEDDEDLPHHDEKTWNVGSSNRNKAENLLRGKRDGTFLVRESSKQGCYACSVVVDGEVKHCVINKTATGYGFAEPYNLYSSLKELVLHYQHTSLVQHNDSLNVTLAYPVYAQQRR

T1 sequence (O75747 whole entry): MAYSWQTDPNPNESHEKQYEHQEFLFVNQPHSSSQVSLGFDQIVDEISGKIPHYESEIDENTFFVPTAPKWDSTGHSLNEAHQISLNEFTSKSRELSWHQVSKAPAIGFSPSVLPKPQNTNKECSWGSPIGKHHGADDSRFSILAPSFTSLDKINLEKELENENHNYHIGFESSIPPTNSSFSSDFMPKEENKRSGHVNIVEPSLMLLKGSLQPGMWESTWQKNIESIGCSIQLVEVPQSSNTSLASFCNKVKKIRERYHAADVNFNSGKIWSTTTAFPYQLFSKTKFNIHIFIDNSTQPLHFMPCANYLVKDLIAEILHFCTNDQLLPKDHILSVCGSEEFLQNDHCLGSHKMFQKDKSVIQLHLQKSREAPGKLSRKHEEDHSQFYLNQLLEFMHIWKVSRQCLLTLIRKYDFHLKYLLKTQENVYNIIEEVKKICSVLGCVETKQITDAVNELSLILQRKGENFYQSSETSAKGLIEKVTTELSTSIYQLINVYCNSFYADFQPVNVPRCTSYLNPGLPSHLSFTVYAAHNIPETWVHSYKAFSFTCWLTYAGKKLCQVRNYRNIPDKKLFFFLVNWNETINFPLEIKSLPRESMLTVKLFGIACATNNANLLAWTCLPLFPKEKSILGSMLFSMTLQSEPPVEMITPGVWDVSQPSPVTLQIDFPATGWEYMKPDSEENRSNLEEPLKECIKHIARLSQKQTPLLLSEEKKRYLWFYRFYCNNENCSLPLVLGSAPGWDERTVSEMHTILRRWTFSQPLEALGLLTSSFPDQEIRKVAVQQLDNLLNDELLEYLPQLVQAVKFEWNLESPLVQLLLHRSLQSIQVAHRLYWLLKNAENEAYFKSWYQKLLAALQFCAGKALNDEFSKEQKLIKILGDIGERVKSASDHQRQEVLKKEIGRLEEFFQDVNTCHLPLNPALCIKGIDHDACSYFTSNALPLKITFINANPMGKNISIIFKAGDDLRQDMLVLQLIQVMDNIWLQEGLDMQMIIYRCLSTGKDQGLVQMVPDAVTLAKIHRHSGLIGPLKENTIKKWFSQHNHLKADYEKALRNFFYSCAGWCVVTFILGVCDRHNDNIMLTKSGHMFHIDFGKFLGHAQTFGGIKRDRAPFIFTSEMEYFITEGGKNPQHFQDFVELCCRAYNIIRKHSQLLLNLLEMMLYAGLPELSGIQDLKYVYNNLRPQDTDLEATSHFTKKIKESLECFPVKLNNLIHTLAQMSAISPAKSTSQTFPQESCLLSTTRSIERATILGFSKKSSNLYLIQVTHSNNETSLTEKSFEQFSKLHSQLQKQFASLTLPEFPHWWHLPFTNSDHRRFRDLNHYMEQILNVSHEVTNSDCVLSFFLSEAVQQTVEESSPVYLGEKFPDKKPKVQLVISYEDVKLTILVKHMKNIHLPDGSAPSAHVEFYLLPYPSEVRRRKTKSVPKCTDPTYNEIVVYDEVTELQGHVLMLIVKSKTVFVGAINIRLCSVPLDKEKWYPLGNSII
T2 sequence (P42338 whole entry): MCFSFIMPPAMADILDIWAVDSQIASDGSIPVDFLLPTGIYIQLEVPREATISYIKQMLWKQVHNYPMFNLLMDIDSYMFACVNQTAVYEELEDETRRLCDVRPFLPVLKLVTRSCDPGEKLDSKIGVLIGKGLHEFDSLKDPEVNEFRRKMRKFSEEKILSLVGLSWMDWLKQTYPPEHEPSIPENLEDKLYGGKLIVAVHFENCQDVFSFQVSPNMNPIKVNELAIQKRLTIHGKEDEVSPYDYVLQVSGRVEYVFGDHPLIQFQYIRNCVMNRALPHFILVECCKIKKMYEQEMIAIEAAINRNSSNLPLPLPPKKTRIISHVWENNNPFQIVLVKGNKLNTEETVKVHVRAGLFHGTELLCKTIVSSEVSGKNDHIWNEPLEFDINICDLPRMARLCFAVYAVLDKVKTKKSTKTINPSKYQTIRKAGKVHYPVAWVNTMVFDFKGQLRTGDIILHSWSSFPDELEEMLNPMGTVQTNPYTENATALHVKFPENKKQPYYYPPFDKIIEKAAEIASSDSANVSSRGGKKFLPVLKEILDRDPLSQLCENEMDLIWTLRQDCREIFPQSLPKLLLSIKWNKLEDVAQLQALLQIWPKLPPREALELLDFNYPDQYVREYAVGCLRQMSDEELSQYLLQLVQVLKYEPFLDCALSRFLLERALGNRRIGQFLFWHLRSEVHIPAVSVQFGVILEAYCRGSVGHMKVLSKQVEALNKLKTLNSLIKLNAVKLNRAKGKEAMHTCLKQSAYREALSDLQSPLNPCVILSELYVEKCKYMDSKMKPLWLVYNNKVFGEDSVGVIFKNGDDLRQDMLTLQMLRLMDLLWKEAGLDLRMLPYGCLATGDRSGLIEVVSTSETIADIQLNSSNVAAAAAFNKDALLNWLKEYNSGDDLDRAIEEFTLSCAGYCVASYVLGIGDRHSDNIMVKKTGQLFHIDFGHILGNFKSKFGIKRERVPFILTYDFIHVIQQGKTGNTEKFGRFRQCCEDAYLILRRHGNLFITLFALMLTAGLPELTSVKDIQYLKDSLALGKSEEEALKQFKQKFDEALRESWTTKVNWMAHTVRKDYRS
T2 sequence (P27986 whole entry partner): as the sequence (P27986 whole entry partner) above

Which remaining activity at 10 µM (PIK3C2G; 10 µM compound) does the source give for `CS(=O)(=O)c1ccc(-c2cnc3ccc(-c4cccc(S(C)(=O)=O)c4)nn23)cc1` [MMV652103] here?
Its remaining activity at 10 µM is 4%.

And the IC50 (PIK3C2G; ADP-Glo)?
Its IC50 is 0.085 µM.

What about the remaining activity at 10 µM (PIK3CB/ PIK3R1) of the same compound?
The remaining activity at 10 µM was 19%.

And the “Solubility (DMSO)” value [1]?
Its value is “soluble in DMSO”.

What about the “Solubility (DMSO)” value ([1]; listed as 652103) of the same compound?
Its value is “Successful”.

What about the “levels of GSH” value (MCF7 cells) of the same compound?
The value was “significant decrease”.

What about the IC50 ([2]; MCF7, Fig 2C summary, MTT 48 h, read-out: IC50 ± SEM MCF7) of the same compound?
The IC50 was 2.2 ± 1.15 µM.

And the IC50 ([2]; MCF7, MTT, 48 h, read-out: Cytotoxicity assays (MTT) IC50 MCF7)?
Its IC50 is 2.2 µM.

And the IC50 ([2]; average of MCF7 and T47D, read-out: average IC50 in the ER+ cell lines MCF7 and T47D)?
The IC50 was 2.5 µM.

And the “SI IC50 MCF12A / IC50 MCF7” value ([2]; selectivity index, MCF12A vs MCF7)?
Its value is 3.02.

What about the IC50 ([3]; Fig 2C summary, MTT 48 h, read-out: IC50 ± SEM MDA-MB-231) of the same compound?
Its IC50 is 14.3 ± 1.03 µM.

And the IC50 ([3]; MTT, 48 h, read-out: IC50 MDA-MB-231)?
The IC50 was 14.3 µM.

And the IC50 ([4]; Fig 2C summary, MTT 48 h, read-out: IC50 ± SEM BT474)?
The IC50 was 7.3 ± 1.05 µM.

And the IC50 ([4]; MTT, 48 h, read-out: IC50 BT474)?
Its IC50 is 7.3 µM.

What about the remaining activity at 10 µM (PIK3C2B) of the same compound?
Its remaining activity at 10 µM is 31%.

What about the remaining activity at 10 µM (PIK3CA/ PIK3R1) of the same compound?
Its remaining activity at 10 µM is 3%.

And the remaining activity at 10 µM (PIK3CD/ PIK3R1)?
Its remaining activity at 10 µM is 3%.
